# Results published in paper PMC6290340, “Discovery of Antiamebic Compounds That Inhibit Cysteine Synthase From the Enteric Parasitic Protist Entamoeba histolytica by Screening of Microbial Secondary Metabolites” (Frontiers in Cellular and Infection Microbiology, 2018).
# Where two headings read alike, the source gives them in different places.
# Columns and labels:
# [1] = system: E. histolytica trophozoites; set-up: method as in Mori et al., 2015; settings: ref Mori et al., 2015, cited from earlier work
# EhCSs [2] = assay: EhCS inhibition, isotype not separated (both CSs / EhCS); assay type: biochemical, Entamoeba histolytica; settings: cytochalasans and cerulenin at 100 μg/ml
# Text: Expression and purification of recombinant E. histolytica CS1 and CS3, and measurement of inhibitory activity against both enzymes were described previously (Mori et al., [2015]).
# [3] = system: E. histolytica trophozoites; assay: In vitro antiamebic activity (WST-1), L-cysteine-deprived or L-cysteine-supplemented BI-S-33 medium; assay type: cell-based, Entamoeba histolytica; settings: for Anti-amebic activity Selectivity Cys(+)/Cys(–): ED50 Cys(+)/ED50 Cys(–), cysteine dependence index; for Anti-amebic activity ED50 Cys (+): L-cysteine (9 mM) supplemented BI-S-33 medium; for Anti-amebic activity ED50 Cys (+) / Anti-amebic activity ED50 Cys (–): 48 hrs; for Anti-amebic activity ED50 Cys (–): L-cysteine-deprived BI-S-33 medium; for IC50: Entamoeba histolytica
# Protocol: Trophozoites were harvested in a logarithmic growth phase 3 or 4 days after inoculation of 1/30–1/12 volume of the seed culture. After the cultures were chilled on ice for 5 min, trophozoites were collected by centrifugation at 500 × g for 10 min at 4°C. The trophozoites were resuspended in BI-S-33 medium containing 1% (v/v) penicillin/streptomycin (Life Technologies, Grand Islands, NY, U.S.A.), with a final concentration of 5 × 10^4 cells/ml. […] The plates were incubated under anaerobic conditions with Anaeropak for 48 hrs. After incubation, the medium was removed and 90 μl of pre-warmed Opti-MEM I (Life Technologies) and 10 μl of WST-1 solution (Dojindo, Kumamoto, Japan) were added to each well. Optical absorbance at 450 nm was measured on a photospectrometer (SH-9000Lab, Corona Electric, Ibaraki, Japan). Metronidazole (Sigma-Aldrich, MO, USA) was used as positive control. Antiamebic assays were done in triplicate. […] The cysteine dependence of the antiamebic activities was calculated as ED 50Cys(+) /ED 50Cys(-) and expressed as “cysteine dependence index.”
# Approximately 2 μl of the compound solution (1 mg/ml, in DMSO) of the Kitasato Natural Products Library or 10 μl of EtOH extracts of microbial culture broth extracts was added to each well of E. histolytica trophozoite-seeded 96-well microtiter plates (final concentrations, 10 μg/ml). Compounds showing more than 80% growth inhibition and having no cytotoxicity against MRC-5 cells were selected for further evaluation.
# E. histolytica CS1 = E. histolytica CS1 (Entamoeba histolytica, UniProt O15570); assay: CS inhibitory activity, recombinant CS1; assay type: biochemical
# Protocol: Pencolide (5.5 mg) was dissolved in 1 ml of 0.25 M L-cysteine aqueous solution (L-cysteine HCl salt in H2O) and left at room temperature for overnight. The reaction mixture was purified by Seppak ODS (Waters co., Massachusetts, USA) and the cysteine adducts were eluted with 30%MeCN-70%H2O containing 0.1%TFA. The obtained fraction was further purified by preparative HPLC (column, Senshupak Pegasil ODS SP100, 20 φ × 250 mm, Senshu Scientific Co. Ltd.; solvent, 0.1%TFA-MeCN-H2O gradient system, 10–50% MeCN per 0–30 min; flow rate, 7.0 ml/min; detection, UV at 210 nm). […] The methanol solution of the obtained adducts was used for measurement of the CS1 inhibitory activity.
# E. histolytica CS3 = E. histolytica CS3 (Entamoeba histolytica, UniProt Q401L7); assay: CS inhibitory activity, recombinant CS3; assay type: biochemical
# [4] = system: E. histolytica trophozoites; assay: In vitro antiamebic activity (WST-1), L-cysteine-deprived or L-cysteine-supplemented BI-S-33 medium; assay type: cell-based, Entamoeba histolytica; settings: Cys (–) medium, 2.5 mM pencolide
# [5] = assay type: physicochemical; settings: 9 mM L-cysteine, 37°C, 2 days
# Protocol: After mixing well with plate mixer for 3 min, the plate was incubated at 37°C axenically with Anaeropak (Mitsubishi Chemical, Tokyo, Japan) for 2 days. The reaction mixtures were evaluated by HPLC analysis (column, Senshupak Pegasil ODS SP100, 4.6 φ × 250 mm, Senshu Scientific Co. Ltd., Japan; solvent, MeCN-H2O gradient system, 10–90% MeCN per 0–30 min; flow rate, 1.0 ml/min; detection, UV at 210 nm) and LC-ESI-MS analysis (column, Capcellcore C18, 2.1 φ × 50 mm, Osaka soda, Japan; solvent, MeCN-H2O-0.1% HCO2H gradient system, 5–100% MeCN per 0–8 min, 100%MeCN per 8–10 min; flow rate, 0.4 ml/min; ESI-MS data was obtained by JEOL JMS-T100LP, JEOL, Japan).
# MRC-5 cells [6] = assay: Cytotoxicity against MRC-5 cells (WST-8); assay type: cell-based, Human; settings: MRC-5 relative to E. histolytica in Cys (–)
# Protocol: (§1) Human fibroblast cell line, MRC-5, was used for cytotoxicity evaluation. MRC-5 cells were plated on 96-well flat bottom plates at a density of 1.5 × 10^4 cells/well in 100 μl of MEM medium each well (Life Technologies) containing 10% fetal bovine serum (Hana-nesco Bio, Tokyo, Japan) and 1% penicillin-streptomycin (Life Technologies) and incubated at 37°C with 5% CO2 for 2 days. Test compounds in 5 μl of 50% DMSO and 50% H2O and 100 μl of MEM medium were mixed and added to each well. After cultivation at 37°C with 5% CO2 for 2 days, cell density and morphological changes were observed under a microscope. After observation, 10 μl of WST-8 solution (Dojindo) was added to the cells and the plate was incubated at 37°C with 5% CO2 for 2 h. Then, absorbance at 450 nm was measured as above. Cytotoxicity against MRC-5 cells was measured in triplicate. ED50 values were calculated as previously described (Arita-Morioka et al., [2015]).
# [7] = Cytotoxicity against MRC-5 cells (WST-8); assay type: cell-based, Human; settings: human, MRC-5 fibroblast cells; 2 days
# Protocol: as §1
# MRC-5 cells [8] = system: MRC-5 cells; set-up: method as in Mori et al., 2015; settings: strong cytotoxicity, times higher, ref Mori et al., 2015; cited from earlier work
# EhCSs [9] = system: EhCSs; set-up: method as in Mori et al., 2015; settings: previous enzymatic screening, ref Mori et al., 2015; read-out: IC50 value against CSs; cited from earlier work
# [10] = read-out: CS inhibitory activity IC50 CS1 (converted)
# [11] = read-out: CS inhibitory activity IC50 CS3 (converted)
# Chain of E. histolytica CS3 (Q401L7 entry or part of it): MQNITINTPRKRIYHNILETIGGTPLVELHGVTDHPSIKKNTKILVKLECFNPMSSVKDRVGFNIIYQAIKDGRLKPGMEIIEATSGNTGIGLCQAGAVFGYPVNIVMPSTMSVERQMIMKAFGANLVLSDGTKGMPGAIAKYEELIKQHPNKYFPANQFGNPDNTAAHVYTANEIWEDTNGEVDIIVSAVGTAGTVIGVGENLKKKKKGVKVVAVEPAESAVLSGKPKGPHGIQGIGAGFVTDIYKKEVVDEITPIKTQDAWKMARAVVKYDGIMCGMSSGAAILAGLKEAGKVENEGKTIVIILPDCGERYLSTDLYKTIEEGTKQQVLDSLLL
# Chain of E. histolytica CS1 (O15570 entry or part of it): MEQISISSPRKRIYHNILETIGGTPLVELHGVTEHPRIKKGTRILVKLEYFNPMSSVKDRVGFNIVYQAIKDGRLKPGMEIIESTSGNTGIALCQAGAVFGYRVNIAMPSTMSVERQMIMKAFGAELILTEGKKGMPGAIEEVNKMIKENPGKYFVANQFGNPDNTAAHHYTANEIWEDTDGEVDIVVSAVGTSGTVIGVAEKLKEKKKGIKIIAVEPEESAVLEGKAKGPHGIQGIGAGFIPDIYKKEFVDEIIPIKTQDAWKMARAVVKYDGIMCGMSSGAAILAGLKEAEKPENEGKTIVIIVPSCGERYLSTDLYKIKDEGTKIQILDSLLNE
molecule,measurement,setting,value
CCCCCCCCCc1cc(OC(=O)c2c(CCCCCCCCC)cc(O)cc2OC2OC(CO)C(O)C(O)C2O)cc(O)c1C(=O)O (stereo not shown) [exophillic acid],Antiamebic activity in vitro,[1],did not show the antiamebic activity
CCC[C@H]1O[C@H](CC(=O)O)CC2=C1C(=O)c1c(O)cccc1C2=O [Deoxyfrenolicin],Inhibitory activity toward both CS1 and CS3 (in words),EhCSs [2],mild inhibition
same,Anti-amebic activity Selectivity Cys(+)/Cys(–),[3],2
same,Anti-amebic activity ED50 Cys (+),[3],3.9 µg/mL
same,Anti-amebic activity ED50 Cys (–),[3],1.7 µg/mL
same,IC50,E. histolytica CS1; [10],72.7 µM
same,IC50,E. histolytica CS3; [11],75.7 µM
C/C=C(\C(=O)O)N1C(=O)C=C(C)C1=O [Pencolide],Cell morphology under a light microscope,[4],apoptosis-like cell death
same,Selectivity Cys (+)/Cys (–) (cysteine dependence index),[3],7.6
same,IC50,"[3]; Cys (+) medium, read-out: Cytotoxicity IC50 Against Entamoeba histolytica in Cys (+)",2140 µM
same,IC50,"[3]; Cys (–) medium, read-out: Cytotoxicity IC50 Against Entamoeba histolytica in Cys (–)",283 ± 44 µM
same,IC50,E. histolytica CS1; [10],233 ± 19 µM
same,Stability in cysteine-supplemented water (HPLC),[5],most of pencolide was changed to the cysteine adducts
same,IC50,E. histolytica CS3; [11],217 ± 25 µM
same,Selectivity MRC-5/Cys (–) (selectivity index),MRC-5 cells [6],6.7
same,IC50 at 2 days,[7],1900 µM
deacetylkinamycin C,ED50 value against amebic trophozoites,[1]; previous study,ca. 20 μM
same,Cytotoxicity against MRC-5 cells relative to antiamebic/CS activity,MRC-5 cells [8],> 10 times
same,IC50,EhCSs [9],~20 µM
CC1=CC(C)CC=CC2C3OC3(C)C(C)C3C(Cc4c[nH]c5ccccc45)NC(=O)C23C(=O)C=CC(=O)C1 (stereo not shown) [Prochaetoglobosin III],Anti-amebic activity Selectivity Cys(+)/Cys(–),[3],17
same,Anti-amebic activity ED50 Cys (+),[3],44 µg/mL
same,Anti-amebic activity ED50 Cys (–),[3],2.6 µg/mL
same,IC50,E. histolytica CS1,> 195 µM
same,Stability in cysteine-supplemented water (HPLC),[5],totally lost
same,IC50,E. histolytica CS3,> 195 µM
"C/C=C/C/C=C/CCC(=O)[C@H]1O[C@H]1C(N)=O [Cerulenin, reference compound]",Inhibitory activity toward both CS1 and CS3 (in words),EhCSs [2],neither three cytochalasans nor cerulenin showed the inhibitory activity
same,Anti-amebic activity ED50 Cys (+),[3],8.2 µg/mL
same,Anti-amebic activity ED50 Cys (–),[3],1.1 µg/mL
same,IC50,E. histolytica CS1,> 448 µM
same,Stability in cysteine-supplemented water (HPLC),[5],relatively stable
same,IC50,E. histolytica CS3,> 448 µM
CC1=CC2C=C(C)C(C)C3C(CC(C)C)NC(=O)C23C(=O)C=CC(=O)C(O)CC1 (stereo not shown) [Aspochalasin B],Anti-amebic activity Selectivity Cys(+)/Cys(–),[3],3
same,Anti-amebic activity ED50 Cys (+),[3],27 µg/mL
same,Anti-amebic activity ED50 Cys (–),[3],9.6 µg/mL
same,IC50,E. histolytica CS1,> 250 µM
same,IC50,E. histolytica CS3,> 250 µM
CC(=O)c1c(C)c(/C(O)=C2\COc3cc(O)c(O)c(C(=O)O)c3C2=O)cc2c(=O)c3c(C(=O)O)c(O)c(O)cc3oc12 [xanthofulvin],Antiamebic activity in vitro,[1],did not show the antiamebic activity
C/C1=C\[C@@H](C)C/C=C/[C@H]2[C@@H]3O[C@]3(C)[C@@H](C)[C@H]3[C@H](Cc4c[nH]c5ccccc45)NC(=O)[C@]32C(=O)/C=C/C(=O)[C@@H]1O [Chaetoglobosin A],Anti-amebic activity Selectivity Cys(+)/Cys(–),[3],>50
same,Anti-amebic activity ED50 Cys (+),[3],>50 µg/mL
same,Anti-amebic activity ED50 Cys (–),[3],1.0 µg/mL
same,IC50,E. histolytica CS1,> 189 µM
same,Stability in cysteine-supplemented water (HPLC),[5],totally lost
same,IC50,E. histolytica CS3,> 189 µM
